Data as given in ChEMBL document CHEMBL1201862, “PubChem BioAssay data set” (2004).
Where “and” joins values, the source holds several entries; their conditions need not be identical. Equal values may be shown once. Calls of active or inactive are those of the source.

Columns and labels:
[1] = target: Prothrombin (Bos taurus, UniProt P00735); test: thrombin protease inhibitors – biochemical, fluorescence polarization, uHTS hits, dose response (AID 602369); type: functional
[2] = target: 26S proteasome non-ATPase regulatory subunit 14 (Homo sapiens, UniProt O00487); test: inhibition of proteasome subunit RPN11 – biochemical, fluorescence polarization, uHTS hits, confirmation (AID 602368); type: functional
Sequence of 26S proteasome non-ATPase regulatory subunit 14 (O00487 whole entry): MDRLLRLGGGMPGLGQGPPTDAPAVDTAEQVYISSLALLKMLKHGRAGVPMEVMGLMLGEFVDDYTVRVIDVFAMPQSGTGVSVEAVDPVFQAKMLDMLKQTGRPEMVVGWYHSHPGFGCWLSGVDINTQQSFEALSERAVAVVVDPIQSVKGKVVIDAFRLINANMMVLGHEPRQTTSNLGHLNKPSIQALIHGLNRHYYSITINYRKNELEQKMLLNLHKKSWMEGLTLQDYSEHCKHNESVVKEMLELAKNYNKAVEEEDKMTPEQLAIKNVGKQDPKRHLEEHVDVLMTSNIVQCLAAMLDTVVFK

[3] = target: T1, Tyrosine-protein phosphatase non-receptor type 7 (Homo sapiens, UniProt P35236); test: Dose Response confirmation of compounds that inhibit HePTP. [Related pubchem assays (depositor defined):AID1059, AID1661, AID2085]; type: functional
T1 sequence (P35236 whole entry): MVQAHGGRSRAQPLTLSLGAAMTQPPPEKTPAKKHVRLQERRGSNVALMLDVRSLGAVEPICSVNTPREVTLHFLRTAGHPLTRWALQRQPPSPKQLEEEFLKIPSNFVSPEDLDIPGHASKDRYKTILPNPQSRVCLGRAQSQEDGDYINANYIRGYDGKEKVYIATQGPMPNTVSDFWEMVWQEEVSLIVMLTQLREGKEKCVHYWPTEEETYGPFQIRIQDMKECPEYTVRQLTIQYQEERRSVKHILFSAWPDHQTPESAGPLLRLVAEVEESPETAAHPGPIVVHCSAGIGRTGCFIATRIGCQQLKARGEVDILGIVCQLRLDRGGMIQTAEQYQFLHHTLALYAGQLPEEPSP

[4] = target: 72 kDa type IV collagenase (Homo sapiens, UniProt P08253); test: Dose Response validation of uHTS RPN11 inhibitor hits using a MMP-2 Fluorescence assay.; type: functional
Sequence of 72 kDa type IV collagenase (P08253 whole entry): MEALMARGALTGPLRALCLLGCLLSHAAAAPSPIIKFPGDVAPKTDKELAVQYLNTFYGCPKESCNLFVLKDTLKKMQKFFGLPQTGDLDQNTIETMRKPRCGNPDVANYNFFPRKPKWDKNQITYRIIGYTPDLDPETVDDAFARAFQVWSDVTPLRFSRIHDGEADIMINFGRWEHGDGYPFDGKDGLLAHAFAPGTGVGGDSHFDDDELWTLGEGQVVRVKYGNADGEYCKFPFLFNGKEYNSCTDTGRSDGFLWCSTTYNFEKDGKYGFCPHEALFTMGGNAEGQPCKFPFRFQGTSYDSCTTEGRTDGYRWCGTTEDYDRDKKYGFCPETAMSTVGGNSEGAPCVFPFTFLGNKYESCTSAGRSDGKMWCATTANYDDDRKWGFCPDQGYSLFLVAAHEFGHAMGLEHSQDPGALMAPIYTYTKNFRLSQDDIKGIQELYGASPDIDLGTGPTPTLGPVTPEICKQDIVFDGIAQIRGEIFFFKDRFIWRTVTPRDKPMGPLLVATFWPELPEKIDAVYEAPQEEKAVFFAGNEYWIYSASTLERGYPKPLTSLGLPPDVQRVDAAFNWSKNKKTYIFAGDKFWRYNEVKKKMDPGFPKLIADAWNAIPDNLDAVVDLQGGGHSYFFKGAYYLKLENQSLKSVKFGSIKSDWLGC

[5] = target: Dual specificity protein phosphatase 3 (Homo sapiens, UniProt P51452); test: Dose Response Confirmation of compounds that inhibit VHR1 in Fluorescent Assay. [Related pubchem assays (depositor defined):AID1661, AID1878]; type: functional
[6] = test system: Vero; test: antiviral protection of cells from WNV – synthesized analogs, SAR follow-up (AID 2238); type: functional, cell-based; conditions: Chlorocebus sabaeus
[7] = test system: Vero; test: inhibition of WNV-induced cytopathic effect – cell-based, CPE readout (AID 1621); type: functional; conditions: Chlorocebus sabaeus
[8] = test system: Vero; test: antiviral activity against WNV, CPE read-out – cell-based (AID 2419); type: functional; conditions: Chlorocebus sabaeus
[9] = test system: Vero; test: host cell viability loss, Vero E6 – synthesized analogs, cytotoxicity control for West Nile virus antiviral project, SAR follow-up (AID 2244); type: functional; conditions: Chlorocebus sabaeus
[10] = A Cell Based Assay for the Identification of Probe candidate Compounds with Anti- Venezuelan Equine Encephalitis virus. [Related pubchem assays: 2409, 2419, 1621, 2238, 2405, 2024, 2065, 2402, 2414, 1635, 1650, 2244 ]; type: functional
[11] = test system: Vero; test: Vero cell viability after compound exposure – synthesized analogs, set II, cytotoxicity control for West Nile virus antiviral project, SAR follow-up (AID 2402); type: functional, Chlorocebus sabaeus
[12] = test system: Vero; test: Vero 76 cell viability after compound exposure – Vero 76 cells, synthesized analogs, cytotoxicity control for West Nile virus antiviral project, SAR follow-up (AID 2414); type: functional, Chlorocebus sabaeus
[13] = target: T2, Eukaryotic translation initiation factor 4H (Homo sapiens, UniProt Q15056); test: inhibitors of translation initiation factor eIF4H – SAR follow-up (AID 435011); type: functional
[14] = target: T2, Eukaryotic translation initiation factor 4H; test: eIF4H binding inhibition – biochemical, uHTS, fluorescence polarization, translation initiation inhibitor project, primary screen (AID 2012)
[15] = target: T3, Polyadenylate-binding protein 1 (Homo sapiens, UniProt P11940); test: PABP inhibition in translation initiation, SAR follow-up (AID 435018); type: functional
T3 sequence (P11940 whole entry): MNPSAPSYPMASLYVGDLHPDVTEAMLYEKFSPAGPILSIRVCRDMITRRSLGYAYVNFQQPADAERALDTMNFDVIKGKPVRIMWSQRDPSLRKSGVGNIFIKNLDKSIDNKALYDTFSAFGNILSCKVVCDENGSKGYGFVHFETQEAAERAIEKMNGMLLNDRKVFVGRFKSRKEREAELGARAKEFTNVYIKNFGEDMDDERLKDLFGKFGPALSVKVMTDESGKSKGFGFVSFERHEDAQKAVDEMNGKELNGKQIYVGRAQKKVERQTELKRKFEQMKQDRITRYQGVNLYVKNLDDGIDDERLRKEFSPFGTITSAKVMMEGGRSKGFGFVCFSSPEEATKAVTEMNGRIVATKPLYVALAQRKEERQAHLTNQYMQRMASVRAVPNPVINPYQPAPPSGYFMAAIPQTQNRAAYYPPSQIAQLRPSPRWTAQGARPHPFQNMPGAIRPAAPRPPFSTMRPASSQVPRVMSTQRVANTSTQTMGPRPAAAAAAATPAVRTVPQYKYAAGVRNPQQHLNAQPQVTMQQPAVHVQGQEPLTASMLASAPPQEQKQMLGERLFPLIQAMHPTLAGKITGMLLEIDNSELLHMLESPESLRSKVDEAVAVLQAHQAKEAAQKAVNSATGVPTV

[16] = target: T3, Polyadenylate-binding protein 1; test: blockers of PABP interaction with poly(A) – biochemical, fluorescence polarization, […] (AID 2014)
[17] = target: Eukaryotic translation initiation factor 4E (Mus musculus, UniProt P63073); test: blockers of eIF4G binding by eIF4E – biochemical, TR-FRET, dose response (AID 855); type: functional;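 note: potency for disrupting eIF4E binding to eIF4GI seen as loss of FRET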
Sequence of Eukaryotic translation initiation factor 4E (P63073 whole entry): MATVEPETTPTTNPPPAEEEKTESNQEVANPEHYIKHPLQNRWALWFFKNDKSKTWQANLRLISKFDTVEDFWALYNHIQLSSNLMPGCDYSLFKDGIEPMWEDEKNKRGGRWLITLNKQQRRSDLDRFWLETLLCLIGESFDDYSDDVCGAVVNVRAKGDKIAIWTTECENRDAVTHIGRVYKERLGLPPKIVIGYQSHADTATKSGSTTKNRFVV

[18] = target: T4, SUMO-activating enzyme (Homo sapiens, UniProt Q9UBT2); test: blockers of UBC9-mediated SUMO conjugation – biochemical, AlphaScreen, SUMOylation inhibitor project, confirmation (AID 2018); type: functional
T4 sequence (Q9UBE0 whole entry): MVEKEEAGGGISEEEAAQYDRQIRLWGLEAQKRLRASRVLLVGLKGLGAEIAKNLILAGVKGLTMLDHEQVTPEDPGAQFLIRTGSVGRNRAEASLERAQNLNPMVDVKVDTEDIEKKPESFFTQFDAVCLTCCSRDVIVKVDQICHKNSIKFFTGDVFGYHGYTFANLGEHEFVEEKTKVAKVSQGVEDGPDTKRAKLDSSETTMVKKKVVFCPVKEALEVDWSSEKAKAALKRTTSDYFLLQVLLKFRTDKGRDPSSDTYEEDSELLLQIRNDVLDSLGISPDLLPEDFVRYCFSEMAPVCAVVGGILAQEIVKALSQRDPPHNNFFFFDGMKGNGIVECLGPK
T4 sequence (Q9UBT2 whole entry): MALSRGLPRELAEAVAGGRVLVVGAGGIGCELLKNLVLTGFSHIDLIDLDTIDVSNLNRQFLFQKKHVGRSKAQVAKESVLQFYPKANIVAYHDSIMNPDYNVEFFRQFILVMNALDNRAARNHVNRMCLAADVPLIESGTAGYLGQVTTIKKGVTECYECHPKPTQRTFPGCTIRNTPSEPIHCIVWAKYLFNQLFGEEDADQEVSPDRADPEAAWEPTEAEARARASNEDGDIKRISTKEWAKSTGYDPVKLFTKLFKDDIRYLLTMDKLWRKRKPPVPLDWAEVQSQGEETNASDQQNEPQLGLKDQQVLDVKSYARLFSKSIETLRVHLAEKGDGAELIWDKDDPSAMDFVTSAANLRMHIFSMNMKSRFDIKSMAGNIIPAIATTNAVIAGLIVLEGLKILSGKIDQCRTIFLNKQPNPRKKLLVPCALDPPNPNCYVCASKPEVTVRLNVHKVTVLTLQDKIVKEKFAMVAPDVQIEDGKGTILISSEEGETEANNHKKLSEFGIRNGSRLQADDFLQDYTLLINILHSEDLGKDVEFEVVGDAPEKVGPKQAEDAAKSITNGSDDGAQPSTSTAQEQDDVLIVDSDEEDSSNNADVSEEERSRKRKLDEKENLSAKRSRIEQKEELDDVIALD

[19] = target: Long-chain-fatty-acid--AMP ligase FadD28 (Mycobacterium tuberculosis, UniProt P9WQ59); test: Fluorescence polarization aasay to screen for inhibitors that compete for the binding of FadD28 to a bisubstrate Measured in Biochemical System Using Plate Reader - 2147-01_Inhibitor_Dose_CherryPick_Activity.; type: functional, Mycobacterium tuberculosis H37Rv
Sequence of Long-chain-fatty-acid--AMP ligase FadD28 (P9WQ59 whole entry): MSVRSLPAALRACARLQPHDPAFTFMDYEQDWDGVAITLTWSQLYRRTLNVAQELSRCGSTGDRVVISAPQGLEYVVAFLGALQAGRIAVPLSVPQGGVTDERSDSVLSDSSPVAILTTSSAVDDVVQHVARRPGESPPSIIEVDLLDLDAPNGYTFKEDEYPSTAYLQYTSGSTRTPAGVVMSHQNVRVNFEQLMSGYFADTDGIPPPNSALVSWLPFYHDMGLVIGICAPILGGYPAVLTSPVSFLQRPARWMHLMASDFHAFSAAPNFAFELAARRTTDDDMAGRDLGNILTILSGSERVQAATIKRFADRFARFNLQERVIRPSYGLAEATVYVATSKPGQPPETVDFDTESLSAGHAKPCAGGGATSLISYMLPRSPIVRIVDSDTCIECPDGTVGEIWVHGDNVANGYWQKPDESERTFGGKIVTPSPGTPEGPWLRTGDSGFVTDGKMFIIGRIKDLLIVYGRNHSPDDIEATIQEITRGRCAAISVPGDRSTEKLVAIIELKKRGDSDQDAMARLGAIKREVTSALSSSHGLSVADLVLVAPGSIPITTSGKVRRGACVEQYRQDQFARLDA

[20] = target: T4, SUMO-activating enzyme; test: blockers of SAE1/SAE2–UBC9 SUMO transfer – biochemical, HTRF, uHTS, primary screen (AID 2006); type: protein-complex assay
[21] = target: T1, Tyrosine-protein phosphatase non-receptor type 7; test: redox-active compounds inhibiting HePTP phosphatase – biochemical, fluorescence, mechanism study (AID 2068); type: functional
[22] = target: T5, G-protein coupled receptor 35 (Homo sapiens, UniProt Q9HC97); test: SAR analysis of Antagonists of the GPR35 Receptor using an Image-Based Assay - Set 5. [Related pubchem assays (depositor defined):AID2058, AID2079]; type: functional
T5 sequence (Q9HC97 whole entry): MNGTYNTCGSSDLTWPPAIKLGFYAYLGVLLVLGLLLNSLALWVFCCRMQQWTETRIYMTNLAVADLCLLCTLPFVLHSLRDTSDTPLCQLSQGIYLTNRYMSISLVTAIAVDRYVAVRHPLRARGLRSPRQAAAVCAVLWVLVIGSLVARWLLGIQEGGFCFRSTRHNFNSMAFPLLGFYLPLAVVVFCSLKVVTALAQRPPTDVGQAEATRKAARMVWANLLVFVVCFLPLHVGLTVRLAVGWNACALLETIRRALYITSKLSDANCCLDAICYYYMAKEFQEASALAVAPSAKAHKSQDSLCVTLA

[23] = target: T5, G-protein coupled receptor 35; test: SAR Analysis for the identification of Selective Antagonists of ERK1/2 Activity in GPR35-Overexpressing U2OS Cells - Set 2. [Related pubchem assays (depositor defined):AID2058, AID2079]; type: functional, cell-based
[24] = target: G-protein coupled receptor 55 (Homo sapiens, UniProt Q9Y2T6); test: SAR Analysis of Selective Antagonists of GPR55 using an Image-Based Assay - Set 3. [Related pubchem assays (depositor defined):AID2058, AID2079]; type: functional
Sequence of G-protein coupled receptor 55 (Q9Y2T6 whole entry): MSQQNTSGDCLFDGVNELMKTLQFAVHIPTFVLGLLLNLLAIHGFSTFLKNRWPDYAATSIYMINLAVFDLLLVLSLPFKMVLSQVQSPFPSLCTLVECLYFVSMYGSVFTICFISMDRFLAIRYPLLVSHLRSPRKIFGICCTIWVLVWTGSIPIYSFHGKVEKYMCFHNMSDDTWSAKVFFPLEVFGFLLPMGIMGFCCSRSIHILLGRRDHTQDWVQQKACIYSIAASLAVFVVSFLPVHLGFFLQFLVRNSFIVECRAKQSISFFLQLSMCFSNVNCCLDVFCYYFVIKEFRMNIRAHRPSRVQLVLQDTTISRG

[25] = target: Glutathione-S-transferase (Schistosoma japonicum, UniProt Q26513); test: GST-antibody interaction or FRET quenching – biochemical, TR-FRET, artefact control for Vif-APOBEC3G degradation inhibitor project, dose response (AID 1117362); type: functional
[26] = target: Matrix metalloproteinase-14 (Homo sapiens, UniProt P50281); test: Dose Response confirmation of uHTS hits for a small molecule inhibitors of MT1-MMP activation in a fluorescence assay set 1.; type: functional
[27] = target: Protein Tat (Human immunodeficiency virus type 1 group M subtype B (isolate HXB2)(HIV-1), UniProt P04608); type: functional;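 note: tat binding to TAR RNA read out by fluorescence polarization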
[28] = target: Heat shock protein HSP 90-alpha (Homo sapiens, UniProt P07900); type: functional, organism-based
[29] = target: T6, Histone-lysine N-methyltransferase NSD2 (Homo sapiens, UniProt O96028); type: biochemical
T6 sequence (O96028 whole entry): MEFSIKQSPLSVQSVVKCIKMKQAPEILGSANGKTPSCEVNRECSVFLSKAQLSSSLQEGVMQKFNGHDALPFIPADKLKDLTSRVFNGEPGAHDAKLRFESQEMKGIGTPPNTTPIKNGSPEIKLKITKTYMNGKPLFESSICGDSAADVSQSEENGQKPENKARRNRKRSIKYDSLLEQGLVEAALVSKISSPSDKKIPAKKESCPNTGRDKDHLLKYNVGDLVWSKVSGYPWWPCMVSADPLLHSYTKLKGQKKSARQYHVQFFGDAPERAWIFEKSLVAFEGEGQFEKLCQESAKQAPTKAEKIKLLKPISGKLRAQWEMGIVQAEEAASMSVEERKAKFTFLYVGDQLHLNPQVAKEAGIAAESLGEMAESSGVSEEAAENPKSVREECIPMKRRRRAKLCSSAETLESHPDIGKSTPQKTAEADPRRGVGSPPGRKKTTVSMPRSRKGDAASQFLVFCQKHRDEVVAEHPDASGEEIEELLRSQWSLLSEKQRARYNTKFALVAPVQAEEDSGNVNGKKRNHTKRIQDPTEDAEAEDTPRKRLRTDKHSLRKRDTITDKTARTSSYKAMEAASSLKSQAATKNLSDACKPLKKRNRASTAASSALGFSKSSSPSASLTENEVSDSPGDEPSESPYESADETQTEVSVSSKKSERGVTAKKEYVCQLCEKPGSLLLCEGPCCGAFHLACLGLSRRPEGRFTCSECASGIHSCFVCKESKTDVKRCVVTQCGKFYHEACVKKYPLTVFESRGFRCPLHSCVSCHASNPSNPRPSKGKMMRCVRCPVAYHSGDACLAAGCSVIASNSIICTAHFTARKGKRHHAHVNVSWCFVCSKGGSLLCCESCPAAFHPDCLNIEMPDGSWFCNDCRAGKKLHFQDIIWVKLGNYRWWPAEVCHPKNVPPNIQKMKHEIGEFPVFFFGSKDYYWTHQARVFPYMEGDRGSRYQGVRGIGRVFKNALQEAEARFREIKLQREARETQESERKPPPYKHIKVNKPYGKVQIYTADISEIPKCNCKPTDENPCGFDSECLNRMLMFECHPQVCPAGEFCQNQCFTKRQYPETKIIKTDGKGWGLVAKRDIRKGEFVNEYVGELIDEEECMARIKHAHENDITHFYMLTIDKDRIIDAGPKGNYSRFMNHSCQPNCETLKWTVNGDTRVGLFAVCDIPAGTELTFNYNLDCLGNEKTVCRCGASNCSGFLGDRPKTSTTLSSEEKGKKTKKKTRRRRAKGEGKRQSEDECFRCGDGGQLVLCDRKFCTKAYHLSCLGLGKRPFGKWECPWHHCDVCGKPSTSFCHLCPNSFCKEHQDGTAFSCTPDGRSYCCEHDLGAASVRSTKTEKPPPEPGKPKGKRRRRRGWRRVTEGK

[30] = target: Botulinum neurotoxin type F (Clostridium botulinum, UniProt P30996); test: High-throughput multiplex microsphere dose response for inhibitors of toxin protease, specifically Botulinum neurotoxin light chain F protease, compounds from Cherry Pick 02.; type: functional; conditions: read-out: EC50_MICROM
Sequence of Botulinum neurotoxin type F (P30996 1-436 limits assumed): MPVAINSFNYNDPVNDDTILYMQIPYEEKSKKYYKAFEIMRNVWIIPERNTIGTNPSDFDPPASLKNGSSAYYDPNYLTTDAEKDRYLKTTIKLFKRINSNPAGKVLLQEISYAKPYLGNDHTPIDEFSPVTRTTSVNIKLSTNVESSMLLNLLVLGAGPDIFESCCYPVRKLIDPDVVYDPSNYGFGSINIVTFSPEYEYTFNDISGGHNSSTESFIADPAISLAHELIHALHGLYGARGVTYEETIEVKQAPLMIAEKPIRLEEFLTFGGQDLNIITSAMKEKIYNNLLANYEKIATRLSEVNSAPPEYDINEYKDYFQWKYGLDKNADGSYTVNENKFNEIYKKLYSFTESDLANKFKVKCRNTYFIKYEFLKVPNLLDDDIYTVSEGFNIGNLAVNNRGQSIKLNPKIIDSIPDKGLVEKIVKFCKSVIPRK

[31] = target: Cystic fibrosis transmembrane conductance regulator/Golgi-associated PDZ and coiled-coil motif-containing protein (Homo sapiens, UniProt P13569+Q9HD26); test: potency against CAL PDZ-peptide interaction – biochemical, fluorescence polarization, Cerulean-tagged CAL PDZ, cherry-picks, dose response (AID 504773)
[32] = viability loss in THP-1 monocytes – THP-1 cells, cytotoxicity control for Vif-APOBEC3G degradation inhibitor project, dose response (AID 1117359); type: functional; conditions: THP-1
[33] = target: Nonstructural protein 1 (Influenza A virus, UniProt Q194T2); type: functional, Influenza A virus (A/California/07/2009(H1N1))
Sequence of Nonstructural protein 1 (Q194T2 whole entry): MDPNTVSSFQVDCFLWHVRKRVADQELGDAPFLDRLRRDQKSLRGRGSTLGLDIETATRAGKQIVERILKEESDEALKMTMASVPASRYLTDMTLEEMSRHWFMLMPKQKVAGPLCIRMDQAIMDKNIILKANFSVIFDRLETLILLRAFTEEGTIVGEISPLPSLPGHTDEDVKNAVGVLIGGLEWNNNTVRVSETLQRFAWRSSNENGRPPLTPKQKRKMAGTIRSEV

[34] = target: T7, COUP transcription factor 2 (Homo sapiens, UniProt P24468); test: Luminescence-based cell-based high throughput dose response assay to identify inhibitors of COUP-TFII (NR2F2).; type: functional;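 note: HEK293 cells transiently cotransfected with COUP-TFII expression vector and reporter; luciferase reporter luminescence driven by COUP-TFII from the pX2-168 reporter plasmid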
T7 sequence (P24468 whole entry): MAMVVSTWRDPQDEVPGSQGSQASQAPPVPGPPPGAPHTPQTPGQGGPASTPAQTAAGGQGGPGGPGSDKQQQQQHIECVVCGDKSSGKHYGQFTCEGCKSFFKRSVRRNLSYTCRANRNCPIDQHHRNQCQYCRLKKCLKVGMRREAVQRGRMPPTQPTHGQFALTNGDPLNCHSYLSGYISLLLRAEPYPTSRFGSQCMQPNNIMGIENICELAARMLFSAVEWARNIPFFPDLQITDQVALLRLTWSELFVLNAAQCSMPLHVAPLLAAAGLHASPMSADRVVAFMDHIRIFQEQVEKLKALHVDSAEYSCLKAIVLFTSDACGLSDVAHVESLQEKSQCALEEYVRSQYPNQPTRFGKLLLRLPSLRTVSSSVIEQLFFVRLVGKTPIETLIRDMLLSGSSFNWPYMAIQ

[35] = target: Glucose-6-phosphate 1-dehydrogenase (Homo sapiens, UniProt P11413); test: inhibition of Homo sapiens G6PD, dose series – biochemical, fluorescence, selectivity assay for P. falciparum G6PD inhibitor project, dose response (AID 504792); type: functional
[36] = HGIII-sPLA2 enzyme inhibition potency – biochemical, QFRET, IC50, dose response (AID 743457);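 note: green fluorescence rise as the enzyme cleaves BODIPY PC-A2 in liposomes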

Cc1ccc(-c2nnn3c2nc(NCCc2ccc(S(N)(=O)=O)cc2)c2ccccc23)cc1
active: IC50 [1] 77.4 µM | IC50 [2] 17.7 µM | IC50 [3] 0.819 µM | IC50 [5] 0.783 µM
inactive: IC50 [4] > 100 µM

Brc1ccc2c(c1)CN1CCCC1=N2
active: IC50 [6] 38.9 µM | IC50 [7] 19.7 µM | IC50 [8] 16.8 µM | CC50 [9] > 40 µM | IC50 [10] > 66.6 µM and 60.3 µM | CC50 [11] 197 µM | CC50 ([11]; Chlorocebus sabaeus, Vero) > 100 µM | CC50 [12] 124 µM | CC50 ([12]; Chlorocebus sabaeus, Vero) > 66.6 µM

COc1ccc(OC)c(NC(=O)CSc2ccc(-c3ccco3)nn2)c1
inactive: IC50 [15] > 100 µM
active: IC50 [13] 48.7 µM | IC50 [14] 16.1 µM | IC50 [16] 93.4 µM

Cc1ccc(NC(=O)CN2C(=O)S/C(=C/c3ccc(O)c([N+](=O)[O-])c3)C2=O)cc1C
active: IC50 [18] 5.08 µM | AC50 [19] 7.6 µM | IC50 [20] 20.9 µM
inactive: IC50 [17] 50 µM

O=C(Nc1ccc2nc(-c3ccco3)c(-c3ccco3)nc2c1)NC1CCCC1
active: IC50 [21] 1.1 µM

COC(=O)c1cnn(-c2ccc(Cl)cc2)c1/C=N/NC(=S)Nc1ccccc1
active: IC50 [22] 0.211 µM
inactive: IC50 [23] 21.8 µM | IC50 [24] > 32 µM

COc1cc(N(C)C)ccc1C=c1c2ccccc2n2c1cc(-c1ccccc1)[n+]2C
inactive: IC50 [4] > 100 µM | EC50 [30] > 20 µM | IC50 [35] > 80 µM | IC50 [36] 19.2 µM
active: IC50 [1] 11.8 µM | IC50 [2] 24.9 µM | IC50 [25] 3.69 µM | IC50 [26] 14.6 µM | IC50 [27] > 100 µM | AC50 [28] 7.6 µM | AC50 [29] 3.07 µM | AC50 [31] 39.9 µM | CC50 [32] 0.22 µM | IC50 [33] 3.2 µM | IC50 [34] 4.89 µM
